How the values were obtained:
MCF-7 cells [1] = conditions: by enhancing cytotoxicity of alkylating agents, cisplatin and melphalan; cited from earlier work
[2] = system: MDA-MB-231 breast cancer cells; experiment: Intracellular lactate, targeted metabolomics (LC/MS); type: cell-based, human; conditions: MDA-MB-231, MNF (1 µM), 3 hours
Procedure: The cells were seeded on 100×20 mm tissue culture plates and maintained at 37° C. under humidified 5% CO2 in air until they reached >70% confluence. The original media was replaced with media containing 0.5 μM or 1 μM MNF and the plates were incubated for an additional 1 hour, unless otherwise indicated. After completion of incubations, the media was aspirated and the cells were washed twice with 10 ml of phosphate buffer saline (pH 7.4) (PBS). The cells were then collected in 10 ml PBS by scrapping and sedimented by centrifugation (1000 rpm, 5 min), and the supernatant discarded. The cell pellets were stored at −80° C. until analyzed. […]
The cells pellets were suspended in 20 μL water, 10 μL of 0.1 mM p-aminohippuric acid as an internal standard was added and the resulting mixture vortex mixed for 1 minute. […] The supernatant was collected and analysed using a system composed of an Agilent Technologies 1100 LC/MSD equipped with a G1322A degasser, G1312A quaternary pump, G1367A autosampler, G1316A column thermostat and G1946D mass spectrometer supplied with electrospray ionization (ESI). […] The compound of interest were monitored in the positive-ion mode for SIM at m/z 162.1 (carnitine), m/z 90.1 (lactate) and m/z 105.1 (3-hydroxybutyrate). The internal standard was monitored at m/z 195.1 (p-aminohippuric acid). […]

PANC-1 = experiment: Proliferation in pancreatic cancer (PancCA) cell lines; type: cell-based, human; conditions: including PANC-1
MCF-7 cells [3] = experiment: Expression of ABC exporters in MCF-7 cells; type: cell-based, human; conditions: incubation with MNF
PANC-1 cells [4] = experiment: Untargeted metabolomics (1D 1H NMR) of intracellular metabolome; type: cell-based, human; conditions: PANC-1, MNF 1 μM
Procedure: The cells were seeded on 100×20 mm tissue culture plates and maintained at 37° C. under humidified 5% CO2 in air until they reached >70% confluence. The original media was replaced with media containing 0.5 μM or 1 μM MNF and the plates were incubated for an additional 1 hour, unless otherwise indicated. After completion of incubations, the media was aspirated and the cells were washed twice with 10 ml of phosphate buffer saline (pH 7.4) (PBS). The cells were then collected in 10 ml PBS by scrapping and sedimented by centrifugation (1000 rpm, 5 min), and the supernatant discarded. The cell pellets were stored at −80° C. until analyzed.
The cell pellet was re-suspended in 1 ml of 80% methanol (cryogenically cold) and incubated at −80° C. for 15 minutes. This suspension was then centrifuged at 13,000×g for 10 minutes at 4° C. The supernatant was collected in an eppendorf tube and the pellet was suspended in 0.25 ml of water. The suspension was vortexed mixed for 1 minute and centrifuged at 13,000×g for 10 minutes at 4° C. The supernatant was collected and mixed with the supernatant collected in the previously step and stream dried under nitrogen. The sample was stored at −80° C. until analyzed.
Sample Preparation and NMR Analysis—Non-Targeted Metabolomics.
The Cell pellet was re-suspended in 1 ml of 80% methanol (cryogenically cold) and incubated at −80° C. for 15 minutes. This suspension was then centrifuged at 13,000×g for 10 minutes at 4° C. The supernatant was collected in an eppendorf tube and the pellet was suspended in 0.25 ml of water. The suspension was vortexed mixed for 1 minute and centrifuged at 13,000×g for 10 minutes at 4° C. The supernatant was collected and mixed with the supernatant collected in the previously step and stream dried under nitrogen. The sample was stored at −80° C. until analyzed. The samples were prepared for NMR experimentation by dissolving in 0.6 ml of 50 mM phosphate buffer (pH 7.2) in 99.8% D2O with 50 μM 3-(tetramethysilane)propionic acid-2,2,3,3-d4 (TMSP). NMR spectra were recorded on a Bruker Avance III-HD 700 MHz spectrometer equipped with a QCI-P cryoprobe and a SampleJet automated sample changer. 1D ^1H spectra were collected using excitation sculpting to remove the solvent signal. A total of 16 k data points with a spectral width of 5482.5 Hz, 8 dummy scans, and 256 scans were used to obtain each spectrum. The data was processed completely in MVAPACK.
An untargeted metabolomics approach using one-dimensional proton nuclear magnetic resonance (1D ^1H NMR) was used to examine the effect of MNF incubation (1 μM, 1 hour) on the intracellular metabolome of PANC-1 cells.

MDA-MD-231 cells = experiment: Expression of ABC exporters in MDA-MB-231 cells; type: cell-based, human; conditions: incubation with MNF
Description: See, FIG. 6A. In MDA-MD-231 cells, MNF reduced the expression of P-gp and BCRP while the signal associated with MRP-1 was too faint to detect in the untreated controls as shown in FIG. 6B. As observed in the expression of cyclin D1, the expression of ABC transporters has been associated with EGFR expression and activity and nuclear translocation of PKM2. Thus, the observed effects are consistent with an MNF-associated reduction in EGFR expression and activity through it effect on glycolysis.

PANC-1 cells [5] = conditions: cited from earlier work

## O=C(O)c1nn(Cc2ccc(Cl)cc2Cl)c2ccccc12 [lonidamine]
MCF-7 cells [1]
  cellular survival: lowers cellular survival

## COc1ccc(C[C@@H](C)NC[C@H](O)c2cc(O)cc(O)c2)c2ccccc12 [MNF, (R,R′)-4′-methoxy-1-naphthylfenoterol]
[2]
  reduction in the intracellular concentration of lactate: ~50%
PANC-1
  proliferation: significantly reduce proliferation
MCF-7 cells [3]
  expression of BCRP: significantly reduced
  expression of MRP-1: significantly reduced
  expression of P-gp: significantly reduced
PANC-1 cells [4]
  relative expression of 3-hydroxybutyrate: increase
  signal associated with carnitine: significantly upregulated
  signal associated with glycine: significantly upregulated
  signal associated with leucine: significantly upregulated
  signal associated with lysine: significantly upregulated
PANC-1 cells [4]; vs untreated cells
  signal associated with lactate: significantly reduced
MDA-MD-231 cells
  expression of BCRP: reduced
  expression of P-gp: reduced

## O=C(O)C(=O)CBr [3-bromopyruvate]
PANC-1 cells [5]
  cellular survival: lowers cellular survival
